According to USRE33699E, “Growth hormone-releasing factor analogs” (International Minerals & Chemical Corp., priority 1990, dated 1991):

Tested on: rat pituitary cells
Assay: Bioassay of hGRF analogs: stimulation of growth hormone release in rat pituitary cells in tissue culture
Type: cell-based
Excerpt: The assay for biological activity, which is based on the ability to stimulate release of growth hormone in rat pituitary cells in tissue culture, has been described in detail (Culler, M. D.; Kenjo, T.: Obara, N.; Arimuar, A., Stimulation of cAMP. Accumulation by Human Pancreatic GH-Releasing Factor(1-44). Am. J. Physiol. 1984, 247 (Endocrinol.Metab. 10). E609-E615.
ALLFIT, the 4-parameter logistic curve fitting program available from the Biomedical Computer Technology Information Center, Vanderbilt Medical Center, Nashville Tenn., was used to determine ED50 and maximal stimulated values from the data. In several instances, the amount of GH released reached a maximum value and decreased with further increasing doses of the hGRF analogs. To simplify the data analysis, these values were not used in the calculations. The calculated maximal responses, the doses of the analog required to release the amount of GH released at the ED50 of the standard (hGRF) and the potencies of the analogs relative to hGRF, are given in Table 2. Generally all novel analogs were fully active and were able to stimulate the release of growth hormone with maximal values of GH release being within 80% of the value for natural hGRF.

`CC[C@H](C)[C@H](NC(=O)[C@H](C)NC(=O)[C@H](CC(=O)O)NC(=O)[C@H](C)NC(=O)[C@@H](N)Cc1ccc(O)cc1)C(=O)N[C@@H](Cc1ccccc1)C(=O)N[C@H](C(=O)N[C@@H](CC(N)=O)C(=O)N[C@@H](CO)C(=O)N[C@@H](Cc1ccc(O)cc1)C(=O)N[C@@H](CCCNC(=N)N)C(=O)N[C@@H](CCCCN)C(=O)N[C@H](C(=O)N[C@@H](CC(C)C)C(=O)NCC(=O)N[C@@H](CCC(N)=O)C(=O)N[C@@H](CC(C)C)C(=O)N[C@@H](CO)C(=O)N[C@@H](C)C(=O)N[C@@H](CCCNC(=N)N)C(=O)N[C@@H](CCCCN)C(=O)N[C@@H](CC(C)C)C(=O)N[C@@H](CC(C)C)C(=O)N[C@@H](CCC(N)=O)C(=O)N[C@@H](CC(=O)O)C(=O)N[C@H](C(=O)N[C@@H](CCSC)C(=O)N[C@@H](CO)C(=O)N[C@@H](CCCNC(=N)N)C(=O)N[C@@H](CCC(N)=O)C(=O)N[C@@H](CCC(N)=O)C(=O)NCC(=O)N[C@@H](CCC(=O)O)C(=O)N[C@@H](CO)C(=O)N[C@@H](CC(N)=O)C(=O)N[C@@H](CCC(N)=O)C(=O)N[C@@H](CCC(=O)O)C(=O)N[C@@H](CCCNC(=N)N)C(=O)NCC(=O)N[C@@H](C)C(=O)N[C@@H](CCCNC(=N)N)C(=O)N[C@@H](C)C(=O)N[C@@H](CCCNC(=N)N)C(=O)N[C@@H](CC(C)C)C(N)=O)[C@@H](C)CC)C(C)C)[C@@H](C)O` [hGRF(1-44)--NH2, reference compound] was tested, and the “Dose Needed to Release 2.01 μg/ml of GH” value (2.01 μg/ml = GH released at the ED50 of hGRF, from ALLFIT curves) was 0.32 nM, the Potency ((ED50 of hGRF)/(Dose required to give same response as ED50 of hGRF)) was 100% and the “Relative Maximum Activity (% of hGRF)” value (from ALLFIT curves) was 100 % of hGRF.
